According to US20240336593A1, “Compound Having Antitumor Activity And Use Thereof” (lnnovStoneTherapeutics Limited, priority 2020, published 2024):

Target: PRMT5 (Homo sapiens (Human), UniProt O14744)
Test: Inhibitory activity against PRMT5 enzyme by radioisotopic method
Type: biochemical
Settings: PRMT5 5 nM, [3H]-SAM 0.3 μM, polypeptide substrate GL-27 100 nM, room temperature
Procedure: Test Example 1. Test on the inhibitory activity of the compounds of the invention against PRMT5 enzyme by radioisotopic method
Test method: A 1× enzyme reaction buffer (10 mM Tris 8.0 (Sigma, Cat. No. T2694-1L), 0.01% Tween-20 (Sigma, Cat. No. P2287-100 ML), 1 mM DTT (Sigma, Cat. No. D0632-10G)) was prepared. PRMT5 (Active Motif, Cat. No. 31921) and [3H]—SAM (PerkinElmer, Cat. No. NET155V001MC) were added to the 1×enzyme reaction buffer, to prepare a 25/15× mixed solution (PRMT5 final concentration: 5 nM, [3H]—SAM final concentration: 0.3 μM). 15 μL of this solution was transferred into a 384-well microplate (Corning 384-well Polypropylene Storage Microplates, Cat. No. 3657) with various concentrations of the compounds (DMSO final concentration 1%), and incubated at room temperature for 60 minutes. A polypeptide substrate, GL-27 (Ac-[…]-K (Biotin) (GL Biochem, Cat. No. 342095)), was added into the 1×enzyme reaction buffer to prepare a 25/10× substrate solution. Then 10 μL of the polypeptide substrate solution (final concentration of the polypeptide substrate: 100 nM) was added, a reaction was stirred at room temperature for 120 minutes, and then 5 μL 6× ice cold SAM (Sigma, Cat. No. A7007-100 MG) solution was added to stop the reaction (SAM final concentration: 0.125 mM). 25 µL of the reaction mixture was transferred into a FlashPlate (Streptavidin FlashPlate HTS PLUS, High Capacity, 384-well, Perkin Elmer, Cat. No. SMP410A001PK), and incubated at room temperature for 1 h. After washed three times with distilled water containing 0.1% Tween-20, the microplate was read on a MicroBeta reader for CPM data (Counts Per Minute). […] Then the inhibition rate Inh % (Y) corresponding to each concentration (X) was input in EXCEL, and the IC50 value (the half maximal inhibitory concentration) of each compound was calculated with the XLfit plug-in according to the built-in four-parameter fitting equation Y=Bottom+(Top-Bottom)/(1+(IC50/X)[…]).

PRMT5, sequence (O14744 whole entry): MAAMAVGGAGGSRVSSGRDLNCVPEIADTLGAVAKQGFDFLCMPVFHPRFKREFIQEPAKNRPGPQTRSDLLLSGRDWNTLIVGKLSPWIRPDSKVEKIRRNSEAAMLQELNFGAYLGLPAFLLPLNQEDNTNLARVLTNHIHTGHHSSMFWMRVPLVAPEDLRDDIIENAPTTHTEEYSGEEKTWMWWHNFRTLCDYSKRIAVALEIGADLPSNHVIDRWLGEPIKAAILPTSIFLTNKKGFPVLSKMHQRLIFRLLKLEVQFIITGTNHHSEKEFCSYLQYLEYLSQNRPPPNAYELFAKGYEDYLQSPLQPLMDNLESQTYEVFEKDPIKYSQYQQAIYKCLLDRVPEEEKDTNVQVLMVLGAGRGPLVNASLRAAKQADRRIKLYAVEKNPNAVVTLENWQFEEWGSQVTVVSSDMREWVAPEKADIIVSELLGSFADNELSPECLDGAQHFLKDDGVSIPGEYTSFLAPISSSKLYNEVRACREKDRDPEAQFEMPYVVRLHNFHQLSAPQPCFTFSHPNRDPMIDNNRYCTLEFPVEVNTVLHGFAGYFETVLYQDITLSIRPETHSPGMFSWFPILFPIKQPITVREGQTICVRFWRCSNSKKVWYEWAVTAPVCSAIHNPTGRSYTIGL
PRMT5, sequence (Q9BQA1 whole entry partner): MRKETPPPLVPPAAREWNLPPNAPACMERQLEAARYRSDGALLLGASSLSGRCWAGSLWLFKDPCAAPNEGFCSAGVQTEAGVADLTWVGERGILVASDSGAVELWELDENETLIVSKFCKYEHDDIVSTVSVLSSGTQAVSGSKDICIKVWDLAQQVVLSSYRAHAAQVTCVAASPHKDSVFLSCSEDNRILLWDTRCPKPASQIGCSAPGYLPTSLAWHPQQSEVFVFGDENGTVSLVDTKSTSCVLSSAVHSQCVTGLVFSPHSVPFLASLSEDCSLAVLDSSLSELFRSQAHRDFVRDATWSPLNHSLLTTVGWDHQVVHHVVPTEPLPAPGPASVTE

Structure (SMILES) | IC50 [nM]
O[C@H]1CN(c2cc(Nc3cccc4c3OCO4)ncn2)CC[C@@H]1N1CCc2ccccc2C1 [Example 83, trans-1-(6-(benzo[d][1,3]dioxazol-4-ylamino)pyrimidin-4-yl)-4-(3,4-dihydroisoquinolin-2(1H)-yl)piperidin-3-ol] | < 100
COc1c(F)cccc1Nc1cc(N2CC[C@@H](N3CCc4ccccc4C3)[C@H](O)C2)ncn1 (relative stereo) [Example 88, trans-1-(6-((3-fluoro-2-methoxyphenyl)amino)pyrimidin-4-yl)-4-(3,4-dihydroisoquinolin-2(1H)-yl)piperidin-3-ol] | < 100
O[C@H]1CN(c2cc(Nc3ccccc3C3CC3)ncn2)CC[C@@H]1N1CCc2ccccc2C1 (relative stereo) [Example 51, trans-4-(3,4-dihydroisoquinolin-2(1H)-yl)-1-(6-((2-cyclopropylphenyl)amino)pyrimidin-4-yl)piperidin-3-ol] | < 100
CC(=O)N1CCC(Nc2cc(C(=O)N3CC[C@H](N4CCc5ccccc5C4)[C@@H](O)C3)nc(N(C)C)n2)CC1 (relative stereo) [Example 118, trans-1-(4-((6-(4-(3,4-dihydroisoquinolin-2(1H)-yl)-3-hydroxypiperidine-1-carbonyl)-2-(dimethylamino)pyrimidin-4-yl)amino)piperidin-1-yl)ethan-1-one] | < 100
CC(=O)N1CCC(Nc2cc(C(=O)N3CC[C@@H](N4CCc5ccccc5C4)[C@H](O)C3)nc(OC(F)(F)F)n2)CC1 [Example 151, 1-(4-((6-((3R,4R)-4-(3,4-dihydroisoquinolin-2(1H)-yl)-3-hydroxypiperidine-1-carbonyl)-2-(trifluoromethoxy)pyrimidin-4-yl)amino)piperidin-1-yl)ethan-1-one] | < 100
O[C@@H]1CN(c2cc(Nc3cccc(N4CCCC4)c3)ncn2)CC[C@H]1N1CCc2ccccc2C1 (relative stereo) [Example 67, trans-4-(3,4-dihydroisoquinolin-2(1H)-yl)-1-(6-((3-(pyrrolidin-1-yl)phenyl)amino)pyrimidin-4-yl)piperidin-3-ol] | < 100
CC(=O)N1CCC(Nc2cc(C(=O)N3CC[C@@H](N4CCc5ccccc5C4)[C@H](O)C3)nc(-c3ccc(C)s3)n2)CC1 [Example 153, 1-(4-((6-((3R,4R)-4-(3,4-dihydroisoquinolin-2(1H)-yl)-3-hydroxypiperidine-1-carbonyl)-2-(5-methylthiophen-2-yl)pyrimidin-4-yl)amino)piperidin-1-yl)ethan-1-one] | < 100
CC(C)(C)c1ccccc1Nc1cc(N2CC[C@H](N3CCc4ccccc4C3)[C@@H](O)C2)ncn1 (relative stereo) [Example 56, trans-4-(3,4-dihydroisoquinolin-2(1H)-yl)-1-(6-((2-t-butylphenyl)amino)pyrimidin-4-yl)piperidin-3-ol] | < 100
COCCN1CCC(Nc2cc(C(=O)N3CC[C@H](N4CCc5ccccc5C4)[C@@H](O)C3)ncn2)CC1 [Example 96] | < 100
CC(=O)N1CCC(Nc2cc(C(=O)N3CC[C@H](N4CCc5ccccc5C4)[C@@H](O)C3)nc(-c3ccccc3)n2)CC1 [Example 104] | < 100
O[C@@H]1CN(c2cc(Nc3cccc(-c4ccccc4)c3)ncn2)CC[C@H]1N1CCc2ccccc2C1 (relative stereo) [Example 74, trans-1-(6-([1,1′-biphenyl]-3-ylamino)pyrimidin-4-yl)-4-(3,4-dihydroisoquinolin-2(1H)-yl)piperidin-3-ol] | < 100
C=Cc1nc(NC2CCN(C(C)=O)CC2)cc(C(=O)N2CC[C@@H](N3CCc4ccccc4C3)[C@H](O)C2)n1 [Example 152, 1-(4-((6-((3R,4R)-4-(3,4-dihydroisoquinolin-2(1H)-yl)-3-hydroxypiperidine-1-carbonyl)-2-vinylpyrimidin-4-yl)amino)piperidin-1-yl)ethan-1-one] | < 100
O[C@H]1CN(c2cc(Nc3ccccc3OC(F)(F)F)ncn2)CC[C@@H]1N1CCc2ccccc2C1 (relative stereo) [Example 84, trans-4-(3,4-dihydroisoquinolin-2(1H)-yl)-1-(6-((2-(trifluoromethoxy)-phenyl)amino)pyrimidin-4-yl)piperidin-3-ol] | < 100
O[C@H]1CN(c2cc(Nc3ccccc3C(F)(F)F)ncn2)CC[C@@H]1N1CCc2ccccc2C1 (relative stereo) [Example 58, trans-4-(3,4-dihydroisoquinolin-2(1H)-yl)-1-(6-((2-trifluoromethylphenyl)amino)pyrimidin-4-yl)piperidin-3-ol] | < 100

Further lines, results first:

IC50 [nM] | Structure (SMILES)
< 100 | CC(=O)N1CCCC(Nc2cc(C(=O)N3CC[C@H](N4CCc5ccccc5C4)[C@@H](O)C3)ncn2)C1 (relative stereo) [Example 106, trans-1-(3-((6-(4-(3,4-dihydroisoquinolin-2(1H)-yl)-3-hydroxypiperidine-1-carbonyl)pyrimidin-4-yl)amino)piperidin-1-yl)ethan-1-one]
< 100 | CC(=O)N1CCC(Nc2cc(C(=O)N3CC[C@H](N4CCc5ccccc5C4)[C@@H](O)C3)ncn2)CC1 (relative stereo) [Example 17, trans-1-(4-((6-(4-(3,4-dihydroisoquinolin-2(1H)-yl)-3-hydroxypiperidine-1-carbonyl)pyrimidin-4-yl)amino)piperidin-1-yl)ethanone]
< 100 | CC(=O)N1CCC(CNc2cc(C(=O)N3CC[C@H](N4CCc5ccccc5C4)[C@@H](O)C3)ncn2)CC1 [Example 103]
< 100 | O=C(c1cc(NC2CCOCC2)ncn1)N1CC[C@H](N2CCc3ccccc3C2)[C@@H](O)C1 [Example 109]
< 100 | O[C@H]1CN(c2cc(Nc3ccccc3)ncn2)CC[C@@H]1N1CCc2ccccc2C1 (relative stereo) [Example 24, trans-4-(3,4-dihydroisoquinolin-2(1H)-yl)-1-(6-(phenylamino)-pyrimidin-4-yl)piperidin-3-ol]
< 100 | O[C@H]1CN(c2cc(Nc3ccccc3F)ncn2)CC[C@@H]1N1CCc2ccccc2C1 (relative stereo) [Example 53, trans-4-(3,4-dihydroisoquinolin-2(1H)-yl)-1-(6-((2-fluorophenyl)amino)pyrimidin-4-yl)piperidin-3-ol]
< 100 | COc1ccc(Nc2cc(N3CC[C@H](N4CCc5ccccc5C4)[C@@H](O)C3)ncn2)cc1 (relative stereo) [Example 55, trans-4-(3,4-dihydroisoquinolin-2(1H)-yl)-1-(6-((4-methoxyphenyl)amino)pyrimidin-4-yl)piperidin-3-ol]
< 100 | CC(=O)N1CCC(CCNc2cc(C(=O)N3CC[C@H](N4CCc5ccccc5C4)[C@@H](O)C3)ncn2)CC1 (relative stereo) [Example 115, trans-1-(4-(2-((6-(4-(3,4-dihydroisoquinolin-2(1H)-yl)-3-hydroxy-piperidine-1-carbonyl)pyrimidin-4-yl)amino)ethyl)piperidin-1-yl)ethanone]
< 100 | CNC(=O)c1ccc(Nc2cc(C(=O)N3CC[C@H](N4CCc5ccccc5C4)[C@@H](O)C3)ncn2)cc1 (relative stereo) [Example 131, trans-4-((6-(4-(3,4-dihydroisoquinolin-2(1H)-yl)-3-hydroxypiperidine-1-carbonyl)pyrimidin-4-yl)amino)-N-methylbenzamide]
